“And” between values parts separate entries of the source, which are not always exact repeats. Equal values may be shown once.
Assay: CNS penetration: total and unbound drug concentrations in tumor regions, CSF and plasma (LC-MS/MS, equilibrium dialysis);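 also: drug levels in patient tumor tissue from contrast-enhancing and non-enhancing regions sampled under MRI-guided neuronavigation, with plasma and CSF drawn during surgical resection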
Conditions: for Everolimus.CSF / Everolimus.Enhancing.tumor / Everolimus.Non-enhancing.tumor / Everolimus.Plasma.conc / Everolimus.Unbound.enhancing / Everolimus.Unbound.non-enhancing / Everolimus.Unbound.plasma: per patient; for concentration at 5 days / Kp at 120 h / Kp: human, oral
[1] = Level 0: Ribociclib 400mg QD + Everolimus 2.5mg QD, sampling 1-3 Hours
[2] = Level 0: Ribociclib 400mg QD + Everolimus 2.5mg QD, sampling 7-9 Hours
[3] = Level 0: Ribociclib 400mg QD + Everolimus 2.5mg QD, sampling 23-25 Hours
[4] = Level 1: Ribociclib 600mg QD + Everolimus 2.5mg QD, sampling 1-3 Hours
[5] = Level 1: Ribociclib 600mg QD + Everolimus 2.5mg QD, sampling 7-9 Hours
[6] = Level 2: Ribociclib 600mg QD + Everolimus 5mg QD, sampling 7-9 Hours
[7] = Level 3: Ribociclib 600mg QD + Everolimus 10mg QD, sampling 7-9 Hours
[8] = Level 4: Ribociclib 600mg QD + Everolimus 50mg once on Day 5, sampling 7-9 Hours
[9] = Level 5: Ribociclib 600mg QD + Everolimus 60mg once on Day 5, sampling 7-9 Hours
[10] = Level 6: Ribociclib 600mg QD + Everolimus 70mg once on Day 5, sampling 7-9 Hours

## CO[C@H]1C[C@@H]2CC[C@@H](C)[C@@](O)(O2)C(=O)C(=O)N2CCCC[C@H]2C(=O)O[C@H]([C@H](C)C[C@@H]2CC[C@@H](OCCO)[C@H](OC)C2)CC(=O)[C@H](C)/C=C(\C)[C@@H](O)[C@@H](OC)C(=O)[C@H](C)C[C@H](C)/C=C/C=C/C=C/1C [Everolimus, everolimus]
2.5 mg QD 5 days
  Total everolimus, CSF, MAX: 0.4 nM
  Total everolimus, CSF, MIN: BLQ
  Total everolimus, Enhancing tumor, MIN: BLQ
  Total everolimus, Non-enhancing tumor, MIN: BLQ
5 mg QD 5 days
  Total everolimus, CSF, MAX: BLQ
  Total everolimus, CSF, MED: BLQ
  Total everolimus, CSF, MIN: BLQ
10 mg QD 5 days
  Total everolimus, CSF, MED: 1.4 nM
  Total everolimus, CSF, MIN: BLQ
  Total everolimus, Enhancing tumor, MIN: BLQ
50 mg single dose
  Total everolimus, CSF, MIN: BLQ
  Total everolimus, Non-enhancing tumor, MIN: BLQ
60 mg single dose
  Total everolimus, CSF, MAX: 0.57 nM
  Total everolimus, CSF, MED: 0.57 nM
  Total everolimus, CSF, MIN: BLQ
70 mg single dose
  Total everolimus, CSF, MAX: 11.4 nM
  Total everolimus, CSF, MED: 6.35 nM
  Total everolimus, CSF, MIN: BLQ
[1]
  Everolimus.CSF: BLQ
  Everolimus.Enhancing.tumor: 5.92E-03 and 4.32E-03
  Everolimus.Non-enhancing.tumor: 2.88E-03 and BLQ
  Everolimus.Plasma.conc: 0.02558 and 0.00883
  Everolimus.Unbound.enhancing: BLQ
  Everolimus.Unbound.non-enhancing: BLQ
  Everolimus.Unbound.plasma: BLQ
[2]
  Everolimus.CSF: BLQ
  Everolimus.Enhancing.tumor: BLQ and 1.69E-02
  Everolimus.Non-enhancing.tumor: BLQ and 2.24E-03
  Everolimus.Plasma.conc: 0.00955 and 0.00618
  Everolimus.Unbound.enhancing: BLQ
  Everolimus.Unbound.non-enhancing: BLQ
  Everolimus.Unbound.plasma: BLQ
[3]
  Everolimus.CSF: BLQ
  Everolimus.Enhancing.tumor: BLQ and 4.44E-03
  Everolimus.Non-enhancing.tumor: BLQ and 5.84E-03
  Everolimus.Plasma.conc: 0.00384 and 0.00714
  Everolimus.Unbound.enhancing: BLQ
  Everolimus.Unbound.non-enhancing: BLQ
  Everolimus.Unbound.plasma: BLQ
[4]
  Everolimus.CSF: 3.90E-04
  Everolimus.Enhancing.tumor: 4.40E-03
  Everolimus.Non-enhancing.tumor: 4.72E-03
  Everolimus.Plasma.conc: 0.01738
  Everolimus.Unbound.enhancing: BLQ
  Everolimus.Unbound.non-enhancing: BLQ
  Everolimus.Unbound.plasma: BLQ
[5]
  Everolimus.CSF: 2.70E-04 and 3.30E-04
  Everolimus.Enhancing.tumor: 8.34E-02 and 9.20E-03
  Everolimus.Non-enhancing.tumor: 3.53E-02 and 8.80E-03
  Everolimus.Plasma.conc: 0.03462 and 0.01401
  Everolimus.Unbound.enhancing: BLQ
  Everolimus.Unbound.non-enhancing: BLQ
  Everolimus.Unbound.plasma: BLQ
[6]
  Everolimus.CSF: BLQ
  Everolimus.Enhancing.tumor: 3.98E-02 and 1.11E-02 and 1.66E-02
  Everolimus.Non-enhancing.tumor: 2.02E-02 and 9.20E-03 and 1.03E-02
  Everolimus.Plasma.conc: 0.0225 and 0.0084 and 0.0281
  Everolimus.Unbound.enhancing: BLQ
  Everolimus.Unbound.non-enhancing: BLQ
  Everolimus.Unbound.plasma: BLQ
[7]
  Everolimus.CSF: BLQ and 2.50E-03 and 3.00E-04
  Everolimus.Enhancing.tumor: 6.13E-02 and 2.67E-02 and BLQ
  Everolimus.Non-enhancing.tumor: 3.33E-02 and 4.50E-03 and 5.00E-03
  Everolimus.Plasma.conc: 0.0311 and 0.0616 and 0.0431
  Everolimus.Unbound.enhancing: BLQ
  Everolimus.Unbound.non-enhancing: BLQ
  Everolimus.Unbound.plasma: BLQ
[8]
  Everolimus.CSF: BLQ and 3.70E-04 and 1.50E-03
  Everolimus.Enhancing.tumor: 5.16E-02 and 5.45E-02 and 7.41E-02
  Everolimus.Non-enhancing.tumor: 2.51E-02 and 6.30E-03
  Everolimus.Plasma.conc: 0.07949 and 0.06123 and 0.063
  Everolimus.Unbound.enhancing: BLQ
  Everolimus.Unbound.non-enhancing: BLQ
  Everolimus.Unbound.plasma: 4.59E-04 and 2.99E-04 and 3.00E-04
[9]
  Everolimus.CSF: 5.70E-04 and BLQ
  Everolimus.Enhancing.tumor: 8.76E-02 and 3.04E-02 and 9.84E-03
  Everolimus.Non-enhancing.tumor: 3.61E-02 and 1.38E-02 and 1.13E-02
  Everolimus.Plasma.conc: 0.07053 and 0.09226 and 0.06809
  Everolimus.Unbound.enhancing: BLQ
  Everolimus.Unbound.non-enhancing: BLQ
  Everolimus.Unbound.plasma: 4.09E-04 and 6.26E-04 and 4.66E-04
[10]
  Everolimus.CSF: 1.14E-02 and BLQ and 1.29E-03
  Everolimus.Enhancing.tumor: 7.18E-02 and 9.00E-02 and 3.12E-02
  Everolimus.Non-enhancing.tumor: 7.82E-02 and 8.24E-03 and 6.80E-03
  Everolimus.Plasma.conc: 0.0531 and 0.05464 and 0.09057
  Everolimus.Unbound.enhancing: BLQ
  Everolimus.Unbound.non-enhancing: BLQ
  Everolimus.Unbound.plasma: 3.00E-04 and 2.82E-04 and 4.90E-04
Everolimus 2.5 mg QD 5 days
  Kp total drug tumor-to-plasma partition ratio, Enhancing tumor, MAX: 2.738
  Kp total drug tumor-to-plasma partition ratio, Enhancing tumor, MIN: BLQ
  Kp total drug tumor-to-plasma partition ratio, Non-enhancing tumor, MAX: 1.02
  Kp total drug tumor-to-plasma partition ratio, Non-enhancing tumor, MIN: BLQ
Everolimus 5 mg QD 5 days
  Kp total drug tumor-to-plasma partition ratio, Enhancing tumor, MAX: 1.77
  Kp total drug tumor-to-plasma partition ratio, Enhancing tumor, MIN: 0.59
  Kp total drug tumor-to-plasma partition ratio, Non-enhancing tumor, MAX: 1.09
  Kp total drug tumor-to-plasma partition ratio, Non-enhancing tumor, MIN: 0.37
Everolimus 10 mg QD 5 days
  Kp total drug tumor-to-plasma partition ratio, Enhancing tumor, MAX: 1.97
  Kp total drug tumor-to-plasma partition ratio, Enhancing tumor, MIN: BLQ
  Kp total drug tumor-to-plasma partition ratio, Non-enhancing tumor, MAX: 1.07
  Kp total drug tumor-to-plasma partition ratio, Non-enhancing tumor, MIN: 0.07
Everolimus 50 mg single dose
  Kp total drug tumor-to-plasma partition ratio, Enhancing tumor, MAX: 1.18
  Kp total drug tumor-to-plasma partition ratio, Enhancing tumor, MIN: 0.65
  Kp total drug tumor-to-plasma partition ratio, Non-enhancing tumor, MAX: 0.32
  Kp total drug tumor-to-plasma partition ratio, Non-enhancing tumor, MIN: BLQ
Everolimus 60 mg single dose
  Kp total drug tumor-to-plasma partition ratio, Enhancing tumor, MAX: 1.24
  Kp total drug tumor-to-plasma partition ratio, Enhancing tumor, MIN: 0.145
  Kp total drug tumor-to-plasma partition ratio, Non-enhancing tumor, MAX: 0.51
Everolimus 70 mg single dose
  Kp total drug tumor-to-plasma partition ratio, Enhancing tumor, MAX: 1.64
  Kp total drug tumor-to-plasma partition ratio, Enhancing tumor, MIN: 0.34
  Kp total drug tumor-to-plasma partition ratio, Non-enhancing tumor, MAX: 1.47
  Kp total drug tumor-to-plasma partition ratio, Non-enhancing tumor, MIN: 0.075
CSF, Total everolimus, MAX, 10 mg QD 5 days
  concentration at 5 days: 2.5 nM
CSF, Total everolimus, MAX, 50 mg single dose
  concentration at 5 days: 1.5 nM
CSF, Total everolimus, MED, 2.5 mg QD 5 days
  concentration at 5 days: 0.33 nM
CSF, Total everolimus, MED, 50 mg single dose
  concentration at 5 days: 0.935 nM
CSF, median everolimus CSF concentration, across the different dose levels
  concentration at 5 days: 0.48 nM
Enhancing tumor and plasma, 2.5 mg
  Kp at 120 h: 0.62
Enhancing tumor and plasma, 5 mg
  Kp at 120 h: 1.32
Enhancing tumor and plasma, 10 mg
  Kp at 120 h: 1.2
Enhancing tumor and plasma, 50 mg
  Kp: 0.89
Enhancing tumor and plasma, 60 mg
  Kp: 0.33
Enhancing tumor and plasma, 70 mg
  Kp: 1.35
Enhancing tumor, Total everolimus, MAX, 2.5 mg QD 5 days
  concentration at 5 days: 83.4 nM
Enhancing tumor, Total everolimus, MAX, 5 mg QD 5 days
  concentration at 5 days: 39.8 nM
Enhancing tumor, Total everolimus, MAX, 10 mg QD 5 days
  concentration at 5 days: 61.3 nM
Enhancing tumor, Total everolimus, MAX, 50 mg single dose
  concentration at 5 days: 74.1 nM
Enhancing tumor, Total everolimus, MAX, 60 mg single dose
  concentration at 5 days: 87.6 nM
Enhancing tumor, Total everolimus, MAX, 70 mg single dose
  concentration at 5 days: 90 nM
Enhancing tumor, Total everolimus, MED, 2.5 mg QD 5 days
  concentration at 5 days: 5.9 nM
Enhancing tumor, Total everolimus, MED, 5 mg QD 5 days
  concentration at 5 days: 16.6 nM
Enhancing tumor, Total everolimus, MED, 10 mg QD 5 days
  concentration at 5 days: 44 nM
Enhancing tumor, Total everolimus, MED, 50 mg single dose
  concentration at 5 days: 54.5 nM
Enhancing tumor, Total everolimus, MED, 60 mg single dose
  concentration at 5 days: 30.4 nM
Enhancing tumor, Total everolimus, MED, 70 mg single dose
  concentration at 5 days: 71.8 nM
Enhancing tumor, Total everolimus, MIN, 5 mg QD 5 days
  concentration at 5 days: 11.1 nM
Enhancing tumor, Total everolimus, MIN, 50 mg single dose
  concentration at 5 days: 51.6 nM
Enhancing tumor, Total everolimus, MIN, 60 mg single dose
  concentration at 5 days: 9.8 nM
Enhancing tumor, Total everolimus, MIN, 70 mg single dose
  concentration at 5 days: 31.2 nM
non-enhancing tumor / plasma, 5 mg
  Kp at 120 h: 0.89
non-enhancing tumor / plasma, 10 mg
  Kp at 120 h: 0.1
non-enhancing tumor and plasma, 2.5 mg
  Kp at 120 h: 0.49
non-enhancing tumor and plasma, 50 mg
  Kp: 0.21
non-enhancing tumor and plasma, 60 mg
  Kp: 0.17
non-enhancing tumor and plasma, 70 mg
  Kp: 0.15
non-enhancing tumor, Total everolimus, MAX, 2.5 mg QD 5 days
  concentration at 5 days: 35.3 nM
non-enhancing tumor, Total everolimus, MAX, 5 mg QD 5 days
  concentration at 5 days: 20.2 nM
non-enhancing tumor, Total everolimus, MAX, 10 mg QD 5 days
  concentration at 5 days: 33.3 nM
non-enhancing tumor, Total everolimus, MAX, 50 mg single dose
  concentration at 5 days: 25.1 nM
non-enhancing tumor, Total everolimus, MAX, 60 mg single dose
  concentration at 5 days: 36.1 nM
non-enhancing tumor, Total everolimus, MAX, 70 mg single dose
  concentration at 5 days: 78.2 nM
non-enhancing tumor, Total everolimus, MED, 2.5 mg QD 5 days
  concentration at 5 days: 5.28 nM
non-enhancing tumor, Total everolimus, MED, 5 mg QD 5 days
  concentration at 5 days: 10.3 nM
non-enhancing tumor, Total everolimus, MED, 10 mg QD 5 days
  concentration at 5 days: 5 nM
non-enhancing tumor, Total everolimus, MED, 50 mg single dose
  concentration at 5 days: 15.7 nM
non-enhancing tumor, Total everolimus, MED, 60 mg single dose
  concentration at 5 days: 13.8 nM
non-enhancing tumor, Total everolimus, MED, 70 mg single dose
  concentration at 5 days: 8.2 nM
non-enhancing tumor, Total everolimus, MIN, 5 mg QD 5 days
  concentration at 5 days: 9.2 nM
non-enhancing tumor, Total everolimus, MIN, 10 mg QD 5 days
  concentration at 5 days: 4.5 nM
non-enhancing tumor, Total everolimus, MIN, 60 mg single dose
  concentration at 5 days: 11.3 nM
non-enhancing tumor, Total everolimus, MIN, 70 mg single dose
  concentration at 5 days: 6.8 nM
Tumor tissue (enhancing and non-enhancing regions), unbound everolimus concentrations in enhancing and non-enhancing tumor regions (below the lower limit of quantitation), all dose levels
  concentration at 5 days: < 0.1 nM
